Reference: patent US8722608B2, “Process of bleaching” (Conopco, Inc., priority 2005, dated 2014)

Assays:
[1] = Stability of aqueous catalyst salt solutions (UV/Vis of 1000× diluted solutions); format: physicochemical; details: 2 weeks; for precipitate formation: pH 2 to 5, 37° C.
Protocol: Stability of aqueous solutions of chloride, sulphate and acetate salts are provided. Solutions of the bleach catalyst with chloride, sulphate and acetate anion were brought to pH 2, 3, 4 and 5 by hydrochloric acid, sulphuric acid and acetic acid respectively. For the acetate this could only give pH 5. For the lower pH values sulphuric acid was used in the case of acetate. The solutions were kept at 37° C. and after 2 weeks the stability was monitored from the absorptions in the UV/Vis spectra of 1000× diluted solutions.

[2] = Bleaching of softwood D0 pulp with H2O2 and catalyst, whiteness; details: 2.5 microM catalyst, 10 kg/t H2O2, 8 kg/t NaOH, 50° C., 1 h, 5% consistency; SD 0.3 points
Protocol: Softwood chemical mill pulp obtained after the D0 bleaching stage (abbreviated as softwood D0 pulp) was used. The bleaching experiments were conducted on small scale in 100 ml vessels using the pulps at 5% consistency (i.e., 5% oven dry wood pulp; 95% aqueous bleaching liquor). The mixture contained 2.5 microM of the catalyst (as chloride, sulfate, acetate and PF6 salts—see Table), 1 kg/t of MgSO4, 8 kg/t of NaOH and 10 kg/t of H2O2 (kg/t: kg chemicals per ton oven dry pulp). The mixture was manually stirred to ensure good distribution of the bleaching chemicals. Then the vessel was placed in a water bath and stirred regularly at 50° C. for 1 h. All experiments were carried out at least 6 times. As a reference the experiment was conducted without catalyst. The dosages and exact reaction conditions are given in the sections below. After the allocated bleaching times the pulp batches were removed from the vessels, filtered using a Buchner funnel, and washed with 100 ml of water. From the resultant samples of bleached pulp 4×4 cm discs were made having a flat surface on one side. The softwood D0 pulp samples were dried using a L&W Rapid Dryer (Lorentzen and Wetter) at 90° C. for 20 minutes. Whiteness of the bleached pulps was determined using L, a*, b* values as defined by CIE (Commission Internationale de l'Eclairage) of the dried pad was measured using a Minolta spectrophotometer.

[3] = Solubility in water at 20° C.; format: physicochemical

| SMILES | % (UV/Vis) remaining ([1]; pH 2, 37° C.) [%] | precipitate formation [1] | % (UV/Vis) remaining ([1]; pH 3, 37° C.) [%] | % (UV/Vis) remaining ([1]; pH 4, 37° C.) [%] | % (UV/Vis) remaining ([1]; pH 5, 37° C.) [%] | Whiteness [2] | solubility in water [3] | water solubility [3] [g per liter] |
| --- | --- | --- | --- | --- | --- | --- | --- | --- |
| CN1CCN(C)CCN(C)CC1.CN1CCN(C)CCN(C)CC1.[Cl-].[Cl-].[Mn+4].[Mn+4].[O-2].[O-2].[O-2] [[Mn2O3(Me3—TACN)2]•Cl2, [Mn2O3(Me3-TACN)2].(Cl)2] | 100 | (Precipitate is formed at all pH's) | 100 | 97 | 94 | 84.3 | – | – |
| CN1CCN(C)CCN(C)CC1.CN1CCN(C)CCN(C)CC1.O=S(=O)([O-])[O-].[Mn+4].[Mn+4].[O-2].[O-2].[O-2] [[Mn2O3(Me3—TACN)2]•SO4, [Mn2O3(Me3-TACN)2].SO4] | 78 | (Precipitate only at pH = 5) | 96 | 94 | 98 | 84.1 | – | – |
| CC(=O)[O-].CC(=O)[O-].CN1CCN(C)CCN(C)CC1.CN1CCN(C)CCN(C)CC1.[Mn+4].[Mn+4].[O-2].[O-2].[O-2] [[Mn2O3(Me3—TACN)2]•(OAc)2, [Mn2O3(Me3-TACN)2].(OAc)2] | 87 | (No precipitate is formed) | 91 | 93 | 95 | 84.0 | more than 70 gram/Liter | – |
| CN1CCN(C)CCN(C)CC1.CN1CCN(C)CCN(C)CC1.F[P-](F)(F)(F)(F)F.F[P-](F)(F)(F)(F)F.[Mn+4].[Mn+4].[O-2].[O-2].[O-2] [[Mn2O3(Me3—TACN)2]•(PF6)2, [Mn2O3(Me3-TACN)2].(PF6)2] | – | – | – | – | – | 84.4 | 1.08 % (w/w) | 10.8 |
